# “Also recorded” adds a separate entry of the source.
# Experiments:
# [1] = cited from earlier work
# [2] = target: CXCR4 (Homo sapiens, UniProt P61073); assay: Competition assay using biotin-labeled TN14003 and streptavidin-conjugated rhodamine on tumor cells; assay type: binding; settings: cells pre-incubated with different concentrations
# Method: FIG. 8 is images of fluorescens micrographs of stained cells. Biotin-labeled TN14003 was used to detect CXCR4 protein from the cells pre-incubated with various concentrations of WZZL811S.
# Using biotin-labeled TN14003 along with streptavidin-conjugated rhodamine allowed a determination of the binding efficiency of these chemicals to the SDF-1 binding site of CXCR4 on tumor cells and compared it to AMD3100-SDF-1 interactions (FIG. 7). […] Cells were pre-incubated with different concentrations of AMD3100. […] Therefore, one of these compounds, WZZL811S, was selected to study its therapeutic potential based on potency and low toxicity to cells (FIG. 9).
# [3] = system: CXCR4 protein levels; assay: CXCR4 protein levels in treated cells; assay type: cell-based, human
# From the text: (§1) CXCR4/SDF-1 interaction activates PI3K/Akt and Ras/Raf/MEK/Erk pathways in a Gαi protein (PTX-sensitive)-dependent manner.
# [4] = system: Erk1/2 phosphorylation; assay: SDF-1-stimulated Erk1/2 phosphorylation; assay type: cell-based, human; settings: data not shown
# From the text: as §1
# [5] = system: phosphorylation of Akt; assay: SDF-1-stimulated phosphorylation of Akt (western blot); assay type: cell-based, human; settings: for concentration blocking Akt activation: 100 ng/ml SDF-1 for 30 minutes; for blocking of SDF-1-stimulated Akt phosphorylation (dose-dependent): MDA-MB-231 cells, 100 ng/ml SDF-1 for 30 min
# From the text: FIG. 2 is an image of a western blot showing phosphorylation of Akt.
# FIG. 10 is a graph and representative blot of matrigel invasion and Akt phosphorylation in cells.
# as §1
# [6] = system: MDA-MB-231 cells; assay: Cell viability of MDA-MB-231 cells; assay type: cell-based, human; settings: even at 100 μM (the highest concentration tested)
# [7] = system: human umbilical vein endothelial cells (HUVECs); assay: Endothelial capillary tube formation assay; assay type: cell-based; settings: 100 nM, SDF-1 100 ng/ml, 18 hours
# Method: The anti-angiogenic effect of test compounds was measured by analyzing endothelial cell growth and tube formation. The angiogenic effect of SDF-1 (100 ng/ml) on capillary formation by human umbilical vein endothelial cells (HUVECs) was examined in vitro using Matrigel-coated 24-well plates precoated with Matrigel and incubated for 18 hours. The angiogenic effect of SDF-1 was inhibited by either 100 nM TN14003 (peptide-based CXCR4 antagonist) or WZZL811S treatment (FIG. 14a, graph FIG. 14b).
# [8] = system: CXCR4/SDF-1 mediated invasion of MDA-MB-231; assay: Matrigel invasion assay, CXCR4/SDF-1-mediated invasion; assay type: cell-based, human; settings: MDA-MB-231, 2 nM
# Method: FIG. 10 is a graph and representative blot of matrigel invasion and Akt phosphorylation in cells. A: Inhibition of CXCR4/SDF-1 mediated invasion of MDA-MB-231 in vitro by WZZL811S. CXCR4/SDF-1 mediated invasion of MDA-MB-231 was blocked either by 2 nM of TN14003 or WZZL811S. B: Incubating MDA-MB-231 cells with 100 ng/ml of SDF-1 for 30 min stimulated phosphorylation of Akt that blocked by WZZL811S in a dose-dependent manner
# Lowering CXCR4 mRNA levels by siRNAs inhibited CXCR4/SDF-1-mediated invasion as measured by a matrigel invasion assay. The CXCR4 ligand, SDF-1 (400 ng/ml) was added to the lower chamber to attract CXCR4-positive breast cancer cells to migrate through the matrigel. The invasion of MDA-MB-231 cells transfected with siRNA1 decreased to 39±4% of the control cells, 51±8% with siRNA2, and only 16±6% with both siRNA1+2 (FIG. 3A).
# WZZL811S was tested in a matrigel invasion assay to determine whether it can inhibit CXCR4/SDF-1-mediated invasion.
# [9] = system: metastatic 686LN cells; assay: Head & Neck cancer metastasis model, 686LN cells injected through the tail vein, FDG-PET; assay type: in vivo, mice; settings: 20 mg/mouse/twice weekly, thirty days
# Method: The metastatic 686LN cells were injected intravenously through the tail vein to generate experimental animal models for Head & Neck cancer metastasis, modulated via CXCR4. […] These 3-D projection images show lung metastases well (bone mets and liver mets were apparent in axial section images of mice in control groups, data not shown).
# [10] = system: SHIV; assay: SHIV infection, p27 antigen capture; assay type: cell-based; settings: 0.1, 1, 10 or 100 nM drug prior to infection; 2 to 5 days
# Method: The effect of the test compounds on HIV infection in model cells was analyzed by p27 antigen capture using SHIV infected cells. Cells were incubated with 0, 0.1, 1, 10 or 100 nM drug prior to infection with SHIV. Viral titer was measured after infection by analyzing levels of p27 antigen. […] The inhibition was measurable at 2 days, and continued to 5 day incubations.
# [11] = system: MT-4 cells; settings: cited from earlier work
# [12] = system: HIV; settings: MT-4 cells; read-out: concentration required for 50% protection of HIV-induced cytopathogenicity; cited from earlier work
# CXCR4, sequence (P61073 whole entry): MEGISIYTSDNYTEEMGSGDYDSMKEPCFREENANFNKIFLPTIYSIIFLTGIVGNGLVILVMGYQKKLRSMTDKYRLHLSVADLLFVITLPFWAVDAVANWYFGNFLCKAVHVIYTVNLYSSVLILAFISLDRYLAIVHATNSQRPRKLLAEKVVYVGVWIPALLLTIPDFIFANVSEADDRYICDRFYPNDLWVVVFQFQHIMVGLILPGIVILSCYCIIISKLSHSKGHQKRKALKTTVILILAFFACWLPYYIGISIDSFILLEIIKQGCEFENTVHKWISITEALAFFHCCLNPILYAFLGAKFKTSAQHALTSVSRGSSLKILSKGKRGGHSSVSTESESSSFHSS
Compound,side effect in clinical study [1],concentration needed to compete against biotin-labeled TN14003 [2] [µM],effect on CXCR4 protein levels [3],concentration attenuating Erk1/2 phosphorylation [4],concentration blocking Akt activation [5],blocking of SDF-1-stimulated Akt phosphorylation (dose-dependent) [5],effect on cell viability [6],inhibition of the angiogenic effect of SDF-1 (tube formation) [7],blocking of SDF-1-induced matrigel invasion [8],efficacy relative to TN14003 [9] [%],inhibition of SHIV infection (p27 antigen) [10],concentration leading to 50% toxicity [11] [µM],EC50 [12] [nM],metastasis of 686LN cells to organs [9]
C1=CC(CN2CCCNCCNCCCNCC2)CC=C1CN1CCCNCCNCCCNCC1 (stereo not drawn) [AMD3100],cardiac-related side effect,10,did not affect,100 nM,a few nano molar,blocked,–,–,–,–,–,–,–,–
c1ccc(NCc2ccc(CNc3ccccn3)cc2)nc1 [WZZL811S],–,–,–,–,–,blocked,did not decrease cell viability,inhibited,blocked; also recorded: as potent as TN14003,80,inhibited SHIV infection at all concentrations tested,–,–,–
TN14003,–,–,did not affect,sub-nano molar,sub-nano molar,blocked,–,inhibited,blocked,–,–,410,0.6,failed to metastasize to any organs

# — patent US20160002174A1, “CXCR4 Antagonists for the Treatment of Medical Disorders” (Emory University, priority 2005, published 2016)
